Assays:
Assay type in all cases: cell-based
[1] = test system: extracellular signal-regulated kinase (ERK); test: Western blot of ERK phosphorylation in LPS-treated RAW264.7 macrophages; conditions: pre-treated 3 h, LPS (1 μg/mL) 30 min
Protocol: Figure 4 Effects of 8 on p38 (a), JNK (b), and ERK (c) phosphorylation in RAW264.7 macrophages. Cells were pre-treated with the indicated concentrations of 8 for 3 h and stimulated for 30 min with LPS (1 μg/mL). Cell extracts were subjected to Western blotting with antibodies specific for phosphorylated-p38 (p-p38), phosphorylated JNK (p-JNK), or phosphorylated ERK1/2 (p-ERK). Membranes were stripped and re-probed to measure the total abundance of each MAPK as a control measurement. Representative blots from three independent experiments are shown.
(§1) The proteins of iNOS, COX-2, NF-κB, and MAPKs were measured by Western blot analysis. The details of procedures for Western blot analysis were described previously.

[2] = test system: iNOS; test: Western blot of iNOS protein expression in LPS-stimulated RAW264.7 macrophages; conditions: pre-treated 3 h, LPS 24 h
Source text: (§2) Therefore, we further tested whether inhibitory effects of 8 against NO and PGE2 productions are correlated with the protein expression of pro-inflammatory enzymes (i.e., iNOS and COX-2, respectively), which are known to catalyze the production of NO and PGEs in LPS-stimulated cells. […] Upon the stimulation by LPS, macrophages can also trigger the production of pro-inflammatory cytokines such as TNF-α, and ILs. The overproduction of these cytokines contributes to the pathogenesis of inflammatory diseases. Thus, we further evaluated the effects of 8 on the mRNA expression of pro-inflammatory cytokines in the LPS-induced cells. The cells were pre-treated with indicated concentration for 3 h, followed by LPS stimulation (1 μg/mL) for 6 h. The mRNA expression of pro-inflammatory cytokines was determined by RT-qPCR.
(§3) Figure 2 Effects of 8 on protein expression levels of iNOS and COX-2 (a), and mRNA expression levels of IL-1β (Il1b) (b), IL-6 (Il6) (c), and TNF-α (Tnf) (d) in RAW264.7 macrophages. The cells were pre-treated for 3 h with the indicated concentrations of 8 and stimulated for 24 h (a), and 6 h (b–d) with LPS (1 μg/mL). The measurement of western blot analysis and RNA quantification for Il1b, Il6, and Tnf expression were performed as described in the Materials and Methods. […]
(§4) The proteins of iNOS, COX-2, NF-κB, and MAPKs were measured by Western blot analysis. […]

[3] = test system: IL-6 (Il6); test: RT-qPCR of IL-6 mRNA in LPS-stimulated RAW264.7 macrophages; conditions: pre-treated 3 h, LPS (1 μg/mL) 6 h
[4] = test system: TNF-α (Tnf); test: RT-qPCR of TNF-α mRNA in LPS-stimulated RAW264.7 macrophages; conditions: pre-treated 3 h, LPS (1 μg/mL) 6 h
[5] = test system: IκB-α; test: Western blot of cytosolic IκBα phosphorylation and degradation in LPS-treated RAW264.7 macrophages; conditions: pre-treated 3 h, LPS (1 μg/mL) 1 h
Protocol: Figure 3 Effects of 8 on NF-κB activation (nuclear-p50 and p65) (a), IκBα phosphorylation and degradation (b), and the DNA binding activity of NF-κB (c) in LPS-treated RAW264.7 macrophages. Cells were pre-treated with the indicated concentrations of 8 for 3 h and stimulated with LPS (1 μg/mL) for 1 h. Western blot analysis (IκBα and p-IκBα in the cytoplasm and NF-κB in the nucleus) was performed as described in the Materials and Methods. Representative blots from three independent experiments are shown. A commercially-available NF-κB ELISA kit (Active Motif) was used to test the nuclear extracts and determine the degree of NF-κB binding. The data shown represent the mean values of three independent experiments. * p < 0.05 compared with the group treated with LPS.
as §1
The proteins of nuclear NF-κB (p50 and p65) and cytosolic IκBα (p-IκBα and IκBα) were obtained by using cytosolic and nuclear fractions. The details of this procedure have been described previously.

[6] = test system: COX-2; test: Western blot of COX-2 protein expression in LPS-stimulated RAW264.7 macrophages; conditions: pre-treated 3 h, LPS 24 h
Source text: as §2, §3, §4

C[C@H]1CCC/C=C/C(=O)c2c(O)cc(O)cc2CC(=O)O1 [Compound 8, (10E,15S)-10,11-dehydrocurvularin]
LPS-induced phosphorylation of ERK [1]: did not suppress these phosphorylations
iNOS protein expression [2]: attenuation of the excessive protein expression of iNOS and COX-2 in a dose-dependent manner
mRNA expression of IL-6 [3]: markedly suppressed the mRNA expression of IL-1β, IL-6, and TNF-α in a dose-dependent manner
mRNA expression of TNF-α [4]: markedly suppressed the mRNA expression of IL-1β, IL-6, and TNF-α in a dose-dependent manner
degradation of IκB-α [5]: blocked the degradation of IκB-α in a concentration-dependent manner
phosphorylation of IκB-α [5]: attenuated this phosphorylation of IκB-α
COX-2 protein expression [6]: attenuation of the excessive protein expression of iNOS and COX-2 in a dose-dependent manner
